Read-outs that look alike come from different tables or passages of the source.
Legend:
[1] = test system: T. brucei (S427 single marker line); assay: microbe, parasite or virus in culture; format: cell-based, Trypanosoma brucei; details: for EC50: Trypanosoma brucei
[2] = test system: MRC-5 cell line (normal diploid human fibroblasts); assay: cells; format: cell-based; details: MRC5, read-out: pEC50 MRC-5 (converted)
[3] = test system: T. brucei; details: cited from earlier work

## O=C(Cc1ccc(Cl)c(Cl)c1)Nc1ccccc1N1CCCC1 [Compound 44, 2-(3,4-Dichlorophenyl)-N-[2-(pyrrolidin-1-yl)phenyl]acetamide]
[1]
  fold loss of potency relative to 38: > 66 fold
[1]; 72 h, read-out: EC50 T. b. brucei
  EC50: 17700 nM

## N=C(N)c1ccc(OCCCCCOc2ccc(C(=N)N)cc2)cc1 [Pentamidine]
[1]; read-out: pEC50 T. brucei (converted)
  EC50: 3.55 nM

## COc1cccc2c1C(=O)c1c(O)c3c(c(O)c1C2=O)C[C@@](O)(C(=O)CO)C[C@@H]3O[C@H]1C[C@H](N)[C@H](O)[C@H](C)O1 [doxorubicin]
[2]
  EC50: 70.8 nM

## NCCCC(N)(C(=O)O)C(F)F (centres unmarked) [eflornithine]
[3]
  Hill slope (s): 4.0
